Data as given in patent US8470883B2, “Preservative system and composition based on glycinate and hydroxyethyl sulfonate salt combination” (Conopco, Inc., priority 2010, dated 2013).

System: Pseudomonas aeruginosa ATCC 9027
Assay: Challenge Test for the Evaluation of Preservative Capacity of Liquid Detergent and Personal Products
Assay type: cell-based
Conditions: aqueous formula, each active component 5%, pH 7.6
Procedure: Experiments were conducted to evaluate antimicrobial activity against Pseudomonas aeruginosa of aqueous formulas containing sodium hydroxyethyl sulfonate, sodium cocoyl glycinate and combinations of these two materials. Samples were prepared at room temperature by mixing together sodium cocoyl glycinate and/or sodium hydroxyethyl sulfonate and water. The pH was adjusted by addition of aqueous hydrochloric acid to reach a 7.6 value. Amounts of each of the active components was 5%. Challenge Test for the Evaluation of Preservative Capacity of Liquid Detergent and Personal Products Pseudomonas aeruginosa ATCC 9027 obtained from American Type Culture Collection, Manassas, Va. 20108. 20 grams of product were inoculated with 0.2 ml of the microorganism at a level of 1.06E+07 or Log 7. A single inoculation was performed. At 2 day, 7 day, 14 day and 21 day time points after inoculation a 1 gram sample was aseptically removed into a neutralizing fluid (TAT Broth) and plated using Letheen Agar. The plates were incubated at 30° C. for 7 days. At the end of the incubation time the plates were removed and examined for microbial growth. The microorganisms recovered were converted into Log10 and compared to initial inoculum count which then determined the Log Reduction. Logarithmic functions are the inverse of exponential functions. Log reduction was determined by the initial inoculum count minus the counts at each sampling time point.

[1] = 2 day after single inoculation (1.06E+07, Log 7)
[2] = 7 day after single inoculation (1.06E+07, Log 7)
[3] = 14 day after single inoculation (1.06E+07, Log 7)
[4] = 21 day after single inoculation (1.06E+07, Log 7)

O=S(=O)([O-])CCO.[Na+] [Sodium Hydroxyethyl Sulfonate, sodium hydroxyethyl sulfonate]
Log Reduction Value [1]: 1.1
Log Reduction Value [2]: 0.9
Log Reduction Value [3]: 0.8
Log Reduction Value [4]: 0.5

sodium cocoyl glycinate
Log Reduction Value [1]: 1.1
Log Reduction Value [2]: 1.1
Log Reduction Value [3]: 0.8
Log Reduction Value [4]: 0.2
